Columns and labels:
Type in all cases: cell-based
E. coli DSM 1576 = experiment: Viable count of E. coli DSM 1576 in aqueous glucosylglycerol solutions with 5% w/w glucose; conditions: for Colony-forming units (CFU/g): 5% w/w glucose, aqueous
Aspergillus niger = experiment: Viable count of mold Aspergillus niger in aqueous glucosylglycerol solution with 3.5% w/w glucose; conditions: A. niger; for Colony-forming units (CFU/g): 50% w/w glucosylglycerol, 3.5% w/w glucose, aqueous
Description: (§1) In addition, a another test was analogously conducted with mold Aspergillus niger and yeast fungi Candida albicans , with an aqueous solution containing 50% w/w of 2-O-α-D glucosylglycerol and 3.5% w/w of glucose being used in this case.

Candida albicans = experiment: Viable count of yeast fungi Candida albicans in aqueous glucosylglycerol solution with 3.5% w/w glucose; conditions: C. albicans; for Colony-forming units (CFU/g): 50% w/w glucosylglycerol, 3.5% w/w glucose, aqueous
Description: as §1

[1] = glucosylglycerol of high concentration

**Q.** Which “Colony-forming units (CFU/g)” value (E. coli DSM 1576; 20% w/w glucosylglycerol, 0 days) does the source give for `OCC(CO)O[C@H]1O[C@H](CO)[C@@H](O)[C@H](O)[C@H]1O` [Glucosylglycerol, 2-O-α-D-glucosylglycerol] here?
**A.** The value was 300,000 CFU/g.

**Q.** What about the “Colony-forming units (CFU/g)” value (E. coli DSM 1576; 20% w/w glucosylglycerol, 2 days) of the same compound?
**A.** The value was 280,000 CFU/g.

**Q.** What about the “Colony-forming units (CFU/g)” value (E. coli DSM 1576; 20% w/w glucosylglycerol, 7 days) of the same compound?
**A.** The value was 100,000 CFU/g.

**Q.** What about the “Colony-forming units (CFU/g)” value (E. coli DSM 1576; 20% w/w glucosylglycerol, 14 days) of the same compound?
**A.** The value was 5,000 CFU/g.

**Q.** What about the “Colony-forming units (CFU/g)” value (E. coli DSM 1576; 20% w/w glucosylglycerol, 21 days) of the same compound?
**A.** Its value is less than 100 CFU/g.

**Q.** And the “Colony-forming units (CFU/g)” value (E. coli DSM 1576; 20% w/w glucosylglycerol, 28 days)?
**A.** Its value is less than 100 CFU/g.

**Q.** And the “Colony-forming units (CFU/g)” value (E. coli DSM 1576; 30% w/w glucosylglycerol, 0 days)?
**A.** Its value is 300,000 CFU/g.

**Q.** And the “Colony-forming units (CFU/g)” value (E. coli DSM 1576; 30% w/w glucosylglycerol, 2 days)?
**A.** Its value is 130,000 CFU/g.

**Q.** What about the “Colony-forming units (CFU/g)” value (E. coli DSM 1576; 30% w/w glucosylglycerol, 7 days) of the same compound?
**A.** The value was <1,000 CFU/g.

**Q.** What about the “Colony-forming units (CFU/g)” value (E. coli DSM 1576; 30% w/w glucosylglycerol, 14 days) of the same compound?
**A.** The value was less than 100 CFU/g.

**Q.** And the “Colony-forming units (CFU/g)” value (E. coli DSM 1576; 30% w/w glucosylglycerol, 21 days)?
**A.** Its value is less than 100 CFU/g.

**Q.** And the “Colony-forming units (CFU/g)” value (E. coli DSM 1576; 30% w/w glucosylglycerol, 28 days)?
**A.** Its value is less than 100 CFU/g.

**Q.** And the “Colony-forming units (CFU/g)” value (E. coli DSM 1576; 50% w/w glucosylglycerol, 0 days)?
**A.** The value was 300,000 CFU/g.

**Q.** And the “Colony-forming units (CFU/g)” value (E. coli DSM 1576; 50% w/w glucosylglycerol, 2 days)?
**A.** Its value is 150,000 CFU/g.

**Q.** What about the “Colony-forming units (CFU/g)” value (E. coli DSM 1576; 50% w/w glucosylglycerol, 7 days) of the same compound?
**A.** The value was <1,000 CFU/g.

**Q.** What about the “Colony-forming units (CFU/g)” value (E. coli DSM 1576; 50% w/w glucosylglycerol, 14 days) of the same compound?
**A.** The value was less than 100 CFU/g.

**Q.** And the “Colony-forming units (CFU/g)” value (E. coli DSM 1576; 50% w/w glucosylglycerol, 21 days)?
**A.** Its value is less than 100 CFU/g.

**Q.** And the “Colony-forming units (CFU/g)” value (E. coli DSM 1576; 50% w/w glucosylglycerol, 28 days)?
**A.** Its value is less than 100 CFU/g.

**Q.** And the bactericidal effect (E. coli DSM 1576; [1])?
**A.** The bactericidal effect was “highly bactericidal effects”.

**Q.** What about the “Colony-forming units (CFU/g)” value (Aspergillus niger; 0 days) of the same compound?
**A.** Its value is 750,000 CFU/g.

**Q.** What about the “Colony-forming units (CFU/g)” value (Aspergillus niger; 2 days) of the same compound?
**A.** The value was 350,000 CFU/g.

**Q.** And the “Colony-forming units (CFU/g)” value (Aspergillus niger; 7 days)?
**A.** The value was 200,000 CFU/g.

**Q.** What about the “Colony-forming units (CFU/g)” value (Aspergillus niger; 14 days) of the same compound?
**A.** The value was 170,000 CFU/g.

**Q.** What about the “Colony-forming units (CFU/g)” value (Aspergillus niger; 21 days) of the same compound?
**A.** The value was 160,000 CFU/g.

**Q.** What about the “Colony-forming units (CFU/g)” value (Aspergillus niger; 28 days) of the same compound?
**A.** Its value is 12,000 CFU/g.

**Q.** And the fungicidal effect (Aspergillus niger; [1])?
**A.** Its fungicidal effect is “fungicidal effects”.

**Q.** What about the “Colony-forming units (CFU/g)” value (Candida albicans; 0 days) of the same compound?
**A.** Its value is 750,000 CFU/g.

**Q.** What about the “Colony-forming units (CFU/g)” value (Candida albicans; 2 days) of the same compound?
**A.** Its value is 320,000 CFU/g.

**Q.** What about the “Colony-forming units (CFU/g)” value (Candida albicans; 7 days) of the same compound?
**A.** The value was 200,000 CFU/g.

**Q.** And the “Colony-forming units (CFU/g)” value (Candida albicans; 14 days)?
**A.** The value was 190,000 CFU/g.

**Q.** What about the “Colony-forming units (CFU/g)” value (Candida albicans; 21 days) of the same compound?
**A.** The value was 120,000 CFU/g.

**Q.** And the “Colony-forming units (CFU/g)” value (Candida albicans; 28 days)?
**A.** The value was 45,000 CFU/g.

**Q.** What about the fungicidal effect (Candida albicans; [1]) of the same compound?
**A.** The fungicidal effect was “fungicidal effects”.
